# Where “and” joins values, the source holds several entries; their conditions need not be identical. Equal entries are not always repeated.
# Tests used:
# HCT-116 xenografts = assay: Subcutaneous colon cancer xenograft in athymic mice; assay type: in vivo
# Description: DLD-1, HCT-116, and HT-29 cells were cultured for 6 days in soft agar in the presence of DMSO (control), 10 μM BAY 11-7082, or 10 μM BAY 11-7085. The data points represent the means of colony counts per field (20×) performed in 5 different regions of the culture dishes. The data shown represent a typical result of two separate experiments. FIGS. 2B,C, show athymic mice received subcutaneous injections of HT-29 (B) or HCT-116 (C) cells, followed by […] of BAY 11-7085 (dark bars) or DMSO (white bars) intraperitoneally twice weekly. The bars represent the 25-75% ranges of the tumor volumes and the horizontal lines in the bars are the medians. Using the Kruskal-Wallace statistical test to compare the median tumor volumes between BAY 11-7085 and DMSO yielded a p-value of 0.005 for HT-29 cells but >0.05 for HCT-116 cells.
# (§1) HT-29 and HCT-116 cells were harvested in 0.25% trypsin-PBS-EDTA, washed once in media and PBS, and resuspended in PBS at 1 million cells per 200 μL. One million cells were injected either subcutaneously in the backs or intraperitoneally in 5 week old female nu/nu athymic mice (Charles River Labs). For the mice with subcutaneous tumors, the tumors were allowed to establish themselves for 10 days after which they were randomized to BAY 11-7085 or DMSO. For the mice with intraperitoneal tumors, the mice received DMSO or BAY 11-7085 (5 mg/kg) 24 hours before the cancer cells were injected intrapentoneally. All mice received BAY 11-7085 (5 mg/kg) or an equal volume of DMSO (˜200 μL) twice weekly for 21-32 days. Subcutaneous tumor sizes were determined by measuring the length and width with calipers. These studies were approved by the U. of Utah Institutional Review Board and Institutional Animal Care and Use Committee and performed in the Animal Resource Center. Mice were euthanized when they experienced a greater than 10% loss in body weight or if they appeared ill. Post-mortem examinations included sectioning of kidney, lung, and liver tissues which were stained with hematoxylin and eosin followed by examination for tissue toxicity/damage by an experienced mouse pathologist (E.J.E.) who was blinded to therapy.
# (Wang et al., 1999) However, BAY 11-7082 or BAY 11-7085 alone inhibit colon cancer xenograft growth in athymic mice. HC-116, and HT-29 cell lines were used to generate subcutaneous tumors in athymic female mice. The mice were subsequently randomized to be treated with vehicle (DMSO) alone or BAY 11-7085 1 mg/kg twice weekly for 28 days.
# [1] = test system: DLD-1 cells expressing IκB super-repressor; assay: Readhesion survival of cells transduced with adenovirus IκB super-repressor (crystal violet); assay type: cell-based; conditions: subapoptotic concentrations, readhesion 8 h
# Description: (§2) The percentage of apoptotic cells was determined using the annexin V assay. The data points represent the averages of three experiments; bars, ±SE. E. DLD-1 and F. HT-29 cells were transduced with an adenovirus containing the IκB super-repressor construct. After 3 days, the cells were transiently suspended and allowed to readhere in the presence of subapoptotic concentrations of BAY 11-7085 or DMSO (vehicle) for 8 h. The data are expressed as fractions of cells surviving compared with the controls (no adenovirus) and were quantitatively determined by staining the remaining adherent cells with crystal violet.
# (§3) DLD-1 and HT-29 cells that were approximately 60-70% confluent were transduced with Ad-IκB super-repressor by adding 1-50 μl of purified virus to the cells. […] In a parallel experiment, the transduced cells were resuspended and allowed to readhere in BAY 11-7085 for 8 h. The percentage of surviving (nonapoptotic) cells was determined using crystal violet staining.
# (§4) The specific involvement of NF-κB in the apoptotic mechanism of BAY 11-7085 was examined specifically. […] The transduced DLD-1 and HT-29 cells were then transiently suspended and allowed to readhere at concentrations of BAY 11-7085 below the in vitro apoptotic threshold (>20 μM) for these cell lines. […] Therefore, inhibition of NF-κB is important to the apoptotic effect of BAY 11-7085 during colon cancer cell readhesion.
# [2] = test system: HT-29 cells expressing IκB super-repressor; assay: as above; assay type: cell-based; conditions: subapoptotic concentrations, readhesion 8 h
# Description: as §2, §3, §4
# [3] = test system: HCT-116 cells injected intraperitoneally; assay: Intraabdominal seeding (metastasis) model in athymic mice; assay type: in vivo; conditions: HCT-116 intraperitoneal; pretreated, then twice weekly; after 21 days
# Description: (§5) FIGS. 6A, B, C show tumor implants of the liver of three athymic mice 21 days after receiving intraperitoneal injections of HT-29 cells. The mice were pretreated and treated for a total of 21 days with DMSO twice weekly. […] The mouse was pretreated and treated for a total of 21 days with DMSO twice weekly. […] This section was obtained from the tumor implant from the mouse in FIG. 6A. […] FIG. 6G, (liver), FIG. 6H, (abdominal wall), and FIG. 6I, (intestinal) show tumor implants in three athymic mice 21 days after receiving intraabdominal injections of HCT-116 cells. All of the mice were treated with 5 mg/kg of BAY 11-7085 twice weekly.
# as §1, with “Post-mortem examinations included sectioning of kidney, lung, and liver tissues which were stained with hematoxylin and eosin followed by examination for tissue toxicity/damage by an experienced mouse pathologist (E.J.E.) who was blinded to therapy.” left out
# (§6) Since BAY 11-7085 induced apoptosis of readherent HT-29 cells, an in vivo model was used to test the ability of the drug to prevent metastasis by seeding of intraabdominal tissue with colon cancer cells. […] Seeding results from the transient suspension of cancer cells, through a loss of adhesion either naturally ro because of surgical displacement, followed by readhesion to other tissues. […]
# [4] = test system: HT-29 cells injected intraperitoneally; assay: as above; assay type: in vivo; conditions: HT-29 intraperitoneal; pretreated 24 hours earlier, then twice weekly, 21 days; n = 6
# Description: as §5
# as §1, with “Post-mortem examinations included sectioning of kidney, lung, and liver tissues which were stained with hematoxylin and eosin followed by examination for tissue toxicity/damage by an experienced mouse pathologist (E.J.E.) who was blinded to therapy.” left out
# as §6
smiles,measurement,setting,value
"CC(C)(C)c1ccc(S(=O)(=O)/C=C/C#N)cc1 [BAY 11-7085, (2E)-3-[4-(tertiarybutylphenyl)sulfonyl]-2-propenenitrile]","p-value, Kruskal-Wallace test of median tumor volumes vs DMSO","HCT-116 xenografts; HCT-116, intraperitoneally twice weekly",> 0.05
same,"tumor volumes, treatment group compared with control group","HCT-116 xenografts; HCT-116 subcutaneous tumors, 1 mg/kg twice weekly for 28 days, vs DMSO",no statistically significant overall difference in the tumor volumes
same,apoptotic threshold with IκB super-repressor expression compared with controls,[1],significantly lowered the apoptotic threshold
same,apoptotic threshold with IκB super-repressor expression compared with controls,[2],significantly lowered the apoptotic threshold
same,metastases of parietal and visceral peritoneum,[3],clear evidence of metastases
same,Liver Metastases (mice with metastases / mice),[4],none of the 6 and 0/6
same,Peritoneal Metastases (mice with metastases / mice),[4],2 of 6 and 2/6
